Here are results for 10 molecules from US7732468B2, “3-aryl-6-aryl-[ 1,2,4]triazolo[3,4-b][1,3,4]thiadiazoles and related compounds as activators of caspases and inducers of apoptosis and the use thereof” (Cytovia, Inc., priority 2006, dated 2010).

Common to all, as to format: cell-based
Assay [1] relates to human Burkitt's lymphoma cell line Namalwa. Nature of the assay: Caspase cascade activation in Namalwa cells. Particulars: Burkitts lymphoma cell, 48 h incubation, read-out: caspase potency EC50 Namalwa. On the procedure: (§1) Human breast cancer cell lines T-47D, human hepatocellular carcinoma cell line SNU398, human colon carcinoma cell line HCT116, human cancer cell line H11299, human Burkitt's lymphoma cell line Namalwa, human lymphoma cell line Raji, and human B cell lymphoblastoid cell line Ramos were grown according to media component mixtures designated by American Type Culture Collection+10% FCS (Invitrogen Corporation), in a 5% CO2-95% humidity incubator at 37° C. T-47D and H1299 cells were maintained at a cell density between 50 and 80% confluency at a cell density of 0.1 to 0.6×10^6 cells/mL. Cells were harvested at 600×g and resuspended at 0.65×10^6 cells/mL into appropriate media+10% FCS. An aliquot of 22.5 μL of cells was added to a well of a 384-well microtiter plate containing 2.5 μL of a 10% DMSO in RPMI-1640 media solution containing 0.16 to 100 μM of 6-(3,4-dimethoxyphenyl)-3-(2-methoxyphenyl)-[1,2,4]triazolo[3,4-b][1,3,4]thiadiazole or other test compound (0.016 to 10 μM final). An aliquot of 22.5 μL of cells was added to a well of a 384-well microtiter plate containing 2.5 μL of a 10% DMSO in RPMI-1640 media solution without test compound as the control sample. The samples were mixed by agitation and then incubated at 37° C. for 48 h in a 5% CO2-95% humidity incubator. After incubation, the samples were removed from the incubator and 25 μL of a solution containing 14 μM of N-(Ac-DEVD)-N′-ethoxycarbonyl-R110 (SEQ ID No.:1) fluorogenic substrate (Cytovia, Inc.; WO99/18856), 20% sucrose (Sigma), 20 mM DTT (Sigma), 200 mM NaCl (Sigma), 40 mM Na PIPES buffer pH 7.2 (Sigma), and 500 μg/mL lysolecithin (Calbiochem) was added. The samples were mixed by agitation and incubated at room temperature. Using a fluorescent plate reader (Model SPECTRAfluor Plus, Tecan), an initial reading (T=0) was made approximately 1-2 min after addition of the substrate solution, employing excitation at 485 nm and emission at 530 nm, to determine the background fluorescence of the control sample. After the 3 h incubation, the samples were read for fluorescence as above (T=3 h).
(§2) The Relative Fluorescence Unit values (RFU) were used to calculate the sample readings as follows: RFU(T=3h)−Control RFU(T=0)=Net RFU(T=3h)
(§3) The activity of caspase cascade activation was determined by the ratio of the net RFU value for 6-(3,4-dimethoxyphenyl)-3-(2-methoxyphenyl)-[1,2,4]triazolo[3,4-b][1,3,4]thiadiazole (Example I) or other test compound to that of control samples. The EC50 (nM) was determined by a sigmoidal dose-response calculation (Prism 3.0, GraphPad Software Inc.).

Assay [2] concerns human colon carcinoma cell line HCT116. Kind of assay: Caspase cascade activation in HCT116 cells. The settings on record: HCT-116, 48 h incubation, read-out: caspase potency EC50 HCT116. On the procedure:
as §1, §2, §3

Assay [3] concerns human hepatocellular carcinoma cell line SNU398. Nature of the assay: Caspase cascade activation in SNU398 cells. The settings on record: SNU-398, 48 h incubation, read-out: caspase potency EC50 SNU398. As to the method:
as §1, §2, §3

Assay [4] has as its system human lymphoma cell line Raji. Nature of the assay: Caspase cascade activation in Raji cells. The settings on record: RAJ1 cells, 48 h incubation, read-out: caspase potency EC50 RAJ1. On the procedure: as §1, §2, §3
Assay [5] concerns Human breast cancer cell lines T-47D. Kind of assay: Caspase cascade activation (Ac-DEVD-R110 fluorogenic substrate) in T-47D cells. The settings on record: T47D cells, 48 h incubation, read-out: caspase potency EC50 T47D. As to the method:
as §1, §2, §3

In assay [6] the test system is human B cell lymphoblastoid cell line Ramos. Nature of the assay: Caspase cascade activation in Ramos cells. Particulars: 48 h incubation, read-out: caspase potency EC50 RAMOS. As to the method: as §1, §2, §3
Assay [7] has as its system human cancer cell line H1299. Nature of the assay: Caspase cascade activation in H1299 cells. Particulars: NCI-H1299, 48 h incubation, read-out: caspase potency EC50 H1299. On the procedure:
as §1, §2, §3

Assay [8] concerns human colon carcinoma cell line HCT116. Nature of the assay: Inhibition of cell proliferation (GI50) in HCT116 cells. Particulars: HCT 116 cells, 48 h incubation. As to the method: (§4) Human breast cancer cell lines T-47D, MX1 and MDAMB435, human colon carcinoma cell line HCT116, human leukemia cell line K562, human lymphoma cell line Raji, human B cell lymphoblastoid cell line Ramos, and human Burkitt's lymphoma cell line Namalwa were grown and harvested as in Example 14. An aliquot of […] of cells (4.4×10^4 cells/mL) was added to a well of a 96-well microtiter plate containing 5 μL of a 10% DMSO in RPMI-1640 media solution containing 10 nM to 100 μM of 6-(3,4-dimethoxyphenyl)-3-(2-methoxyphenyl)-[1,2,4]triazolo[3,4-b][1,3,4]thiadiazole (1 nM to 10 μM final). An aliquot of 45 μL of cells was added to a well of a 96-well microtiter plate containing 5 μL of a 10% DMSO in RPMI-1640 media solution without compound as the control sample for maximal cell proliferation (LMax). The samples were mixed by agitation and then incubated at 37° C. for 48 h in a 5% CO2-95% humidity incubator. After incubation, the samples were removed from the incubator and 25 μL of CellTiter-Glo™ reagent (Promega) was added. The samples were mixed by agitation and incubated at room temperature for 10-15 min. Plates were then read using a luminescent plate reader (Model SPECTRAfluor Plus, Tecan) to give Ltest values.
(§5) The samples were mixed by agitation and then incubated at 37° C. for 0.5 h in a 5% CO2-95% humidity incubator. After incubation, the samples were removed from the incubator and 25 μL of CellTiter-Glo™ reagent (Promega) was added. The samples were mixed by agitation and incubated at […] 10-15 min at room temperature in a 5% CO2-95% humidity incubator. Fluorescence was read as above, (LStart) defining luminescence for initial cell number used as baseline in GI50 determinations.
(§6) GI50 (dose for 50% inhibition of cell proliferation) is the concentration where [(LTest−LStart)/(LMax−LStart)]=0.5.

Assay [9] has as its system human B cell lymphoblastoid cell line Ramos. Nature of the assay: Inhibition of cell proliferation (GI50) in Ramos cells. The settings on record: 48 h incubation. As to the method:
as §4, §5, §6

Assay [10] relates to human Burkitt's lymphoma cell line Namalwa. Nature of the assay: Inhibition of cell proliferation (GI50) in Namalwa cells. Particulars: Burkitts lymphoma cell, 48 h incubation. On the procedure:
as §4, §5, §6

Assay [11] relates to human lymphoma cell line Raji. Kind of assay: Inhibition of cell proliferation (GI50) in Raji cells. Particulars: 48 h incubation. On the procedure: as §4, §5, §6
The subject of assay [12] is human leukemia cell line K562. Kind of assay: Inhibition of cell proliferation (GI50) in K562 cells. The settings on record: 48 h incubation. As to the method: as §4, §5, §6

For the molecule `COc1ccc(-c2nn3c(-c4ccc(Cl)cc4Cl)nnc3s2)cc1OC` [N, 3-(2,4-Dichlorophenyl)-6-(3,4-dimethoxyphenyl)-[1,2,4]triazolo[3,4-b][1,3,4]thiadiazole], the EC50 in assay [1] was 5.51 µM; in assay [2], above 10 µM; in assay [3], above 10 µM; in assay [4], above 10 µM; in assay [5] it was 5.02 µM; in [6], 5.78 µM. Also, in assay [7], the EC50 was above 10 µM.
Regarding `Clc1ccccc1-c1nnc2sc(-c3ccc4c(c3)OCO4)nn12` [L, 3-(2-Chlorophenyl)-6-(3,4-methylenedioxyphenyl)-[1,2,4]triazolo[3,4-b][1,3,4]thiadiazole], the EC50 in [1] was above 10 µM; in assay [2], above 10 µM; in [3], above 10 µM; in assay [4] it was above 10 µM; in [5] it was 2.62 µM; in [6], above 10 µM. Further, the concentration for a half-maximal effect (EC50) in [7] is above 10 µM.
Regarding `COc1ccc(-c2nn3c(-c4ccc(Cl)cc4)nnc3s2)cc1` [M, 3-(4-Chlorophenyl)-6-(4-methoxyphenyl)-[1,2,4]triazolo[3,4-b][1,3,4]thiadiazole], the EC50 in [1] was above 10 µM; in assay [2], above 10 µM; in [3], above 10 µM; in assay [4], above 10 µM; in assay [5], 4.48 µM; in assay [6], above 10 µM. In addition, the EC50 in assay [7] came to 5.05 µM.
Regarding `COc1cccc(-c2nn3c(-c4cc(OC)c(OC)c(OC)c4)nnc3s2)c1` [U, 6-(3-Methoxyphenyl)-3-(3,4,5-trimethoxyphenyl)-[1,2,4]triazolo[3,4-b][1,3,4]thiadiazole], the 50% effective concentration (EC50) was above 10 µM in [1]; above 10 µM in assay [2]; above 10 µM in assay [3]; above 10 µM in [4]; 2.74 µM in assay [5]; above 10 µM in assay [6]. For the same molecule, the 50% growth inhibitory concentration (GI50) in [8] is above 10 µM; in [9], 2.69 µM; in assay [10], above 10 µM; in assay [11], 4.64 µM; in assay [12], 2.77 µM.
As to `Clc1ccccc1-c1nnc2sc(-c3ccc4c(c3)OCCO4)nn12` [Q, 3-(2-Chlorophenyl)-6-(3,4-ethylenedioxyphenyl)-[1,2,4]triazolo[3,4-b][1,3,4]thiadiazole], the concentration for a half-maximal effect (EC50) was determined as 0.552 µM in assay [1]; 2.67 µM in [2]; 2.12 µM in assay [3]; 0.688 µM in [4]; 2.45 µM in [5]; 0.532 µM in assay [6]. The concentration for 50% growth inhibition (GI50) in assay [8] came out at 6.04 µM; in [9], 1.3 µM; in assay [10], 2.04 µM; in [11] it was 6.73 µM; in assay [12], 1.88 µM.
On to `COc1cc(-c2nnc3sc(-c4ccco4)nn23)cc(OC)c1OC` [R, 6-(Furan-2-yl)-3-(3,4,5-trimethoxyphenyl)-[1,2,4]triazolo[3,4-b][1,3,4]thiadiazole], for which the EC50 in assay [1] amounted to 0.244 µM; in assay [2], 0.216 µM; in assay [3], 0.183 µM; in [4], 0.253 µM; in assay [5], 0.203 µM; in [6] it was 0.241 µM. In addition, the GI50 is 1.5 µM in [8]; 0.442 µM in assay [9]; 0.45 µM in [10]; 0.651 µM in [11]; 0.15 µM in [12].
Turning to `Cc1ccccc1-c1nnc2sc(-c3ccc(N(C)C)cc3)nn12` [Entry I1, 6-(4-Dimethylaminophenyl)-3-o-tolyl-[1,2,4]triazolo[3,4-b][1,3,4]thiadiazole], the EC50 came out at 0.51 µM in assay [1]; 1.33 µM in assay [2]; 0.596 µM in assay [3]; 0.634 µM in assay [4]; 0.864 µM in [5]; 0.558 µM in assay [6]. Moreover, the GI50 in assay [8] came to 1.19 µM; in assay [9], 0.093 µM; in [10], 0.142 µM; in assay [11], 0.253 µM; in [12], 0.35 µM.
As for `CCN(CC)c1ccc(-c2nn3c(-c4ccccc4Cl)nnc3s2)cc1` [Entry G1, 3-(2-Chlorophenyl)-6-(4-diethylaminophenyl)-[1,2,4]triazolo[3,4-b][1,3,4]thiadiazole], the EC50 amounted to 0.593 µM in assay [1]; 1.38 µM in [2]; 0.455 µM in assay [3]; 0.627 µM in assay [4]; 0.584 µM in assay [5]; 0.575 µM in [6]. Besides, the 50% growth inhibitory concentration (GI50) in [8] came to 0.492 µM; in [9], 0.041 µM; in assay [10], 0.149 µM; in [11], 0.405 µM; in assay [12] it was 0.155 µM.
Turning to `COc1ccc(-c2nn3c(-c4cc(OC)c(OC)c(OC)c4)nnc3s2)cc1OC` [V, 6-(3,4-Dimethoxyphenyl)-3-(3,4,5-trimethoxyphenyl)-[1,2,4]triazolo[3,4-b][1,3,4]thiadiazole], the half-maximal effective concentration (EC50) in assay [1] was above 10 µM; in assay [2], above 10 µM; in assay [3], above 10 µM; in assay [4], above 10 µM; in assay [5], above 10 µM; in [6], 2.32 µM. Further, the GI50 in [8] is 5 µM; in assay [9], 3.65 µM; in [10], above 10 µM; in [11], 5 µM; in assay [12], 1.6 µM.
As to `COc1cc(-c2nnc3sc(-c4ccc(C)cc4)nn23)cc(OC)c1OC` [Entry B1, 6-p-Tolyl-3-(3,4,5-trimethoxyphenyl)-[1,2,4]triazolo[3,4-b][1,3,4]thiadiazole], the concentration giving a half-maximal response (EC50) in [1] amounted to 0.356 µM; in [2] it was 0.647 µM; in [3], 0.494 µM; in [4] it was 0.678 µM; in assay [5], 1.54 µM; in assay [6] it was 0.379 µM. The concentration for 50% growth inhibition (GI50) in assay [8] came out at 1 µM; in [9], 0.119 µM; in [10], 0.253 µM; in assay [11], 0.549 µM; in [12], 0.303 µM.
